# According to patent EP0007672A1, “Isocyanoalkenes, process and useful intermediates for their preparation, pharmaceutical and fungicidal preparations containing those isocyanoalkenes and the use of the fungicidal preparations in agriculture” (GIST-BROCADES N.V., priority 1978, dated 1980):
# Read-outs that look alike come from different tables or passages of the source.
# How the values were obtained:
# Test in all cases: MIC (Minimum Inhibitory Concentration)
# Type in all cases: cell-based
# [1] = system: Streptococcus haemolyticus; details: Streptococcus, read-out: MIC values
# Source text: (§1) In addition they may be used for combatting plant diseases, in particular as fungicides. A list of MIC (Minimum Inhibitory Concentration) values for a number of microorganisms is listed herebelow. The figures in the column headings refer to the compounds prepared according to the experimental examples in comparison with the spectrum of 1-[2-(2,4-dichlorophenyl)-2-{(2,4-dichlorophenyl)-methoxy} -ethyl7-1H-imidazole (better known under the name of miconazole, c.f. Merck Index 9th Ed. page 6047) or natamycin (pimaricin, c.f. Merck Index 9th Ed. page 7233).
# [2] = system: Trichophyton quickeaneum; details: read-out: MIC values
# Source text: as §1
# [3] = system: Trichophyton soudanese joyeux; details: read-out: MIC values
# Source text: as §1
# [4] = system: Trichophyton schoenleinii; details: read-out: MIC values
# Source text: as §1
# [5] = system: Pasteurella multocida; details: Pasteurella multocida, read-out: MIC values
# Source text: as §1
# [6] = system: Trichophyton violoceum; details: read-out: MIC values
# Source text: as §1
# [7] = system: Trichophyton equinum
# Source text: as §1
# [8] = system: Trichophyton mentagrophytus
# Source text: as §1
# [9] = system: Trichophyton rubrum
# Source text: as §1
# [10] = system: Trichophyton verrucosum
# Source text: as §1
# [11] = system: Candida albicans
# Source text: as §1
# [12] = system: Trichophyton tonsurans; details: read-out: MIC values
# Source text: as §1
# [13] = read-out: MIC values, Trichophyton equinum 182-76
# [14] = read-out: MIC values, Trichophyton equinum 441-51
# [15] = read-out: MIC values, Trichophyton mentagrophytus 367-68
# [16] = read-out: MIC values, Trichophyton mentagrophytus 421-67
# [17] = read-out: MIC values, Trichophyton mentagrophytus A 3252
# [18] = read-out: MIC values, Trichophyton mentagrophytus R 177
# [19] = read-out: MIC values, Trichophyton mentagrophytus R 178
# [20] = read-out: MIC values, Trichophyton rubrum 218-65
# [21] = read-out: MIC values, Trichophyton rubrum 494-62
# [22] = read-out: MIC values, Trichophyton rubrum A 810
# [23] = read-out: MIC values, Trichophyton verrucosum 134-66
# [24] = read-out: MIC values, Trichophyton verrucosum A 2922
# [25] = read-out: MIC values, Candida albicans A 7
# [26] = read-out: MIC values, Candida albicans A 3140
# [27] = read-out: MIC values, Candida albicans A 3141
# [28] = read-out: MIC values, Candida albicans A 3142
# [29] = read-out: MIC values, Candida albicans A 3143
# [30] = read-out: MIC values, Candida albicans A 3144
# [31] = read-out: MIC values, Candida albicans A 3145
# [32] = read-out: MIC values, Candida albicans A 3165
# [33] = read-out: MIC values, Candida albicans A 3166
# [34] = read-out: MIC values, Candida albicans A 3167
# [35] = read-out: MIC values, Candida albicans A 3169
# [36] = read-out: MIC values, Candida albicans A 3171
# [37] = read-out: MIC values, Candida albicans A 3184
# [38] = read-out: MIC values, Candida albicans A 3190
# [39] = read-out: MIC values, Candida albicans A 3192
# [40] = read-out: MIC values, Candida albicans A 3194
# [41] = read-out: MIC values, Candida albicans A 3196
structure (smiles),measurement,setting,value
"[C-]#[N+]C(=C1C2CC3CC(C2)CC1C3)S(=O)(=O)c1ccc(C)cc1 [Example 2, a-adamantylidene-a-(4-toluenesulphonyl) methylisocyanide]",MIC,[1],50 µg/mL
same,MIC,[2]; Trichophyton,> 100 µg/mL
same,MIC,[3]; Trichophyton,50 µg/mL
same,MIC,[4]; Trichophyton schoenleinii,25 µg/mL
same,MIC,[5],> 100 µg/mL
same,MIC,[6]; Trichophyton,50 µg/mL
same,MIC,[7]; [13],50 µg/mL
same,MIC,[7]; [14],25 µg/mL
same,MIC,"[7]; read-out: MIC values, Trichophyton equinum 856-71",> 100 µg/mL
same,MIC,[8]; [15],> 100 µg/mL
same,MIC,[8]; [16],50 µg/mL
same,MIC,[8]; [17],> 100 µg/mL
same,MIC,[8]; [18],100 µg/mL
same,MIC,[8]; [19],> 100 µg/mL
same,MIC,"[8]; read-out: MIC values, Trichophyton mentagrophytus RRL 305",50 µg/mL
same,MIC,[9]; [20],< 0.05 µg/mL
same,MIC,[9]; [21],> 100 µg/mL
same,MIC,[9]; [22],50 µg/mL
same,MIC,[10]; [23],25 µg/mL
same,MIC,[10]; [24],< 0.05 µg/mL
same,MIC,[11]; [25],0.8 µg/mL
same,MIC,[11]; [26],12.5 µg/mL
same,MIC,[11]; [27],> 100 µg/mL
same,MIC,[11]; [28],> 100 µg/mL
same,MIC,[11]; [29],0.8 µg/mL
same,MIC,[11]; [30],> 100 µg/mL
same,MIC,[11]; [31],> 100 µg/mL
same,MIC,[11]; [32],50 µg/mL
same,MIC,[11]; [33],50 µg/mL
same,MIC,[11]; [34],25 µg/mL
same,MIC,[11]; [35],1.5 µg/mL
same,MIC,[11]; [36],> 100 µg/mL
same,MIC,[11]; [37],0.8 µg/mL
same,MIC,[11]; [38],100 µg/mL
same,MIC,[11]; [39],1.5 µg/mL
same,MIC,[11]; [40],> 100 µg/mL
same,MIC,[11]; [41],> 100 µg/mL
"[C-]#[N+]C(=C(C)C)S(=O)(=O)c1ccc(C)cc1 [Example 5, 1-isocyano-2-methyl-1-(4-toluenesulphonyl)-1-propene]",MIC,[12]; Trichophyton tonsurans 561-50,< 0.1 µg/mL
same,MIC,[2]; Trichophyton quickeaneum A 2040,0.8 µg/mL
same,MIC,[3]; Trichophyton soudanese joyeux 440-63,12.5 µg/mL
same,MIC,[4]; Trichophyton schoenleinii 435-63,0.2 µg/mL
same,MIC,[6]; Trichophyton violoceum 442-62,0.1 µg/mL
same,MIC,"[7]; Trichophyton equinum 182-76, read-out: MIC values",3 µg/mL
same,MIC,"[7]; Trichophyton equinum 856-71, read-out: MIC values",6 µg/mL
same,MIC,"[8]; Trichophyton mentagrophytus 367-68, read-out: MIC values",1.5 µg/mL
same,MIC,"[8]; Trichophyton mentagrophytus 421-67, read-out: MIC values",1.5 µg/mL
same,MIC,"[8]; Trichophyton mentagrophytus A 3252, read-out: MIC values",0.8 µg/mL
same,MIC,"[8]; Trichophyton mentagrophytus R 177, read-out: MIC values",6 µg/mL
same,MIC,"[8]; Trichophyton mentagrophytus R 178, read-out: MIC values",50 µg/mL
same,MIC,"[8]; Trichophyton mentagrophytus RRL 305, read-out: MIC values",3 µg/mL
same,MIC,"[9]; Trichophyton rubrum 218-65, read-out: MIC values",0.4 µg/mL
same,MIC,"[9]; Trichophyton rubrum 494-62, read-out: MIC values",0.4 µg/mL
same,MIC,"[11]; Candida albicans A 7, read-out: MIC values",3 µg/mL
same,MIC,"[11]; Candida albicans A 3140, read-out: MIC values",12.5 µg/mL
same,MIC,"[11]; Candida albicans A 3141, read-out: MIC values",25 µg/mL
same,MIC,"[11]; Candida albicans A 3142, read-out: MIC values",25 µg/mL
same,MIC,"[11]; Candida albicans A 3143, read-out: MIC values",25 µg/mL
same,MIC,"[11]; Candida albicans A 3144, read-out: MIC values",25 µg/mL
same,MIC,"[11]; Candida albicans A 3145, read-out: MIC values",12.5 µg/mL
same,MIC,"[11]; Candida albicans A 3165, read-out: MIC values",12.5 µg/mL
same,MIC,"[11]; Candida albicans A 3166, read-out: MIC values",12.5 µg/mL
same,MIC,"[11]; Candida albicans A 3167, read-out: MIC values",25 µg/mL
same,MIC,"[11]; Candida albicans A 3168, read-out: MIC values",25 µg/mL
same,MIC,"[11]; Candida albicans A 3169, read-out: MIC values",25 µg/mL
same,MIC,"[11]; Candida albicans A 3171, read-out: MIC values",12.5 µg/mL
same,MIC,"[11]; Candida albicans A 3184, read-out: MIC values",12.5 µg/mL
same,MIC,"[11]; Candida albicans A 3190, read-out: MIC values",12.5 µg/mL
same,MIC,"[11]; Candida albicans A 3191, read-out: MIC values",25 µg/mL
same,MIC,"[11]; Candida albicans A 3192, read-out: MIC values",25 µg/mL
same,MIC,"[11]; Candida albicans A 3194, read-out: MIC values",25 µg/mL
same,MIC,"[11]; Candida albicans A 3196, read-out: MIC values",25 µg/mL
"[C-]#[N+]C(C1=CCCCCCC1)S(=O)(=O)c1ccc(C)cc1 (stereo not drawn) [Example 20, α-(cycloocten-1-yl)-α-(4-toluenesulphonyl) methylisocyanide]",MIC,[12]; Trichophyton tonsurans,0.75 µg/mL
same,MIC,[1],12.5 µg/mL
same,MIC,[2]; Trichophyton,25 µg/mL
same,MIC,[4]; Trichophyton schoenleinii,12.5 µg/mL
same,MIC,[5],50 µg/mL
same,MIC,[6]; Trichophyton,12.5 µg/mL
same,MIC,[7]; [13],50 µg/mL
same,MIC,[7]; [14],12.5 µg/mL
same,MIC,[8]; [15],50 µg/mL
same,MIC,[8]; [16],100 µg/mL
same,MIC,[8]; [17],25 µg/mL
same,MIC,[8]; [18],50 µg/mL
same,MIC,[8]; [19],> 100 µg/mL
same,MIC,[9]; [20],12.5 µg/mL
same,MIC,[9]; [21],12.5 µg/mL
same,MIC,[9]; [22],100 µg/mL
same,MIC,[10]; [23],6 µg/mL
same,MIC,[10]; [24],6 µg/mL
same,MIC,[11]; [25],6 µg/mL
same,MIC,[11]; [26],6 µg/mL
same,MIC,[11]; [27],6 µg/mL
same,MIC,[11]; [28],6 µg/mL
same,MIC,[11]; [29],6 µg/mL
same,MIC,[11]; [30],6 µg/mL
same,MIC,[11]; [31],6 µg/mL
same,MIC,[11]; [32],6 µg/mL
same,MIC,[11]; [33],6 µg/mL
same,MIC,[11]; [34],6 µg/mL
same,MIC,"[11]; read-out: MIC values, Candida albicans A 3168",6 µg/mL
same,MIC,[11]; [35],6 µg/mL
same,MIC,[11]; [36],6 µg/mL
same,MIC,[11]; [37],6 µg/mL
same,MIC,[11]; [38],6 µg/mL
same,MIC,"[11]; read-out: MIC values, Candida albicans A 3191",6 µg/mL
same,MIC,[11]; [39],6 µg/mL
same,MIC,[11]; [40],3 µg/mL
same,MIC,[11]; [41],6 µg/mL
